Entries after “also recorded” stand apart in the source; their conditions may differ. Bridge positions count the residues as written; N and C are the ends. Square brackets hold non-standard residues; d marks the D form. Ends that are not written are not given here. Peptide text beside a SMILES is read from it. I, II: the chains in the order shown. Ac6c = NC1(C(=O)O)CCCCC1; Dab = NCC[C@H](N)C(=O)O; Dap = NC[C@H](N)C(=O)O
Key:
[1] = test system: E. coli D31; details: full strength Muller-Hinton broth, 16 hours, 37° C.
Description: (§1) To investigate the activity of the A3-APO metabolites, Chex1-Arg20 single chain unit and an Arg7-Arg20 common cleavage fragment were synthesized and studied for their ability to kill Enterobacteriaceae strains in undiluted Muller-Hinton broth, a true measure of potential clinical viability (Otvos et al., 2005. J. Med. Chem. 48: 5349-5359). The peptides of the invention were made on a CEM Liberty automated synthesizer with standard Fmoc-chemistry. The peptides were detached from the resin with the carboxyl terminus of the C-terminal Arg residue being in the form of an amino amide, —C(O)—NH2 (“Chex1-Arg20-NH2” and “Arg7-Arg20-NH2”), while still in the microwave chamber, and were purified by RP-HPLC. […] The biological studies carried out on chemically synthesized peptides in this example and succeeding examples were carried out on the C-terminal modified versions of the peptides wherein the C-terminal carboxylic acid function was in the form of an amide, —C(O)—NH2. Antibacterial growth inhibition assays were performed using sterile 96-well polypropylene plates (Nunc F96 microtiter plates) in a final volume of 100 μL as described previously (Cudic et al., 2002. Peptides 23: 271-283). The cell concentrations were estimated by measuring the ultraviolet absorbance at 600 nm and applying the formula cfu/mL=A600(3.8×10^8), where cfu is the number of colony-forming units. Briefly, 50 μL of a suspension of midlogarithmic phase bacterial cultures diluted to 5×10^5 cfu/mL in Muller-Hinton broth (MHB) was added to 50 μL of serially diluted peptides also dissolved in MHB. The final peptide concentration was 128 μg/mL. Cultures were then incubated at 37° C., 5% CO2 for 16-20 h without shaking, and growth inhibition was measured by recording the absorbance at 600 nm using a microplate reader. […] The minimal inhibitory concentration indicates the lowest peptide dose where no visible bacterial growth is detected after 16 hours incubation in full strength Muller-Hinton broth at 37° C. The peptide Chex-pyrr-Dap dimer was also included in the study. […] (Cudic et al., 2002. Peptides 23: 271-283).

[2] = test system: E. coli HK179; details: HK179, 16 h
Description: as §1

[3] = test system: E. coli SEQ102; details: SEQ102, 16 h
Description: as §1

[4] = test system: Enterobacteriaceae strains
Description: as §1

[5] = test system: K. pneumoniae HK123; details: HK123, 16 h
Description: as §1

[6] = test system: S. typhimurium G10215; details: G10215, 16 h
Description: as §1

[7] = ex vivo blood, protocol of 'Stability of Peptide A3-APO in Whole Blood'; details: CD-1 mice, 37° C., up to 120 min
[8] = test system: Escherichia coli 5770; experiment: Blood bacterial counts before and after intraperitoneal dosing of infected CD-1 mice (FIGS. 4A, 4B); format: in vivo; details: compared with imipenem in the respective assay
Description: FIGS. 4A and 4B illustrate blood bacterial counts before and after intraperitoneal drug dosing to Escherichia coli 5770 infected CD-1 mice. In FIG. 4A the symbols represent bacterial counts observed for infected and non-treated mice, A3-APO treated mice and imipenem treated mice. In FIG. 4B the symbols represent bacterial counts observed for infected and non-treated mice, Chex1-Arg20-NH2 treated mice and imipenem treated mice. Identical shapes if FIGS. 4A and 4B represent identical timepoints, respectively.
Both A3-APO and Chex1-Arg20 are active in lethal systemic infections. Efficacy is shown in both the increase of survival time and the reduction of blood bacterial counts. FIGS. 4A and 4B show blood bacterial counts before and after intraperitoneal drug dosing to Escherichia coli 5770 infected CD-1 mice. In FIG. 4A the symbols represent bacterial counts observed for infected and non-treated mice, A3-APO treated mice and imipenem treated mice. In FIG. 4B the symbols represent bacterial counts observed for infected and non-treated mice, Chex1-Arg20-NH2 treated mice and imipenem treated mice. Identical shapes if FIGS. 4A and 4B represent identical timepoints, respectively.

[9] = blood taken from the eye of CD-1 mice injected intravenously with A3-APO; details: up to 240 minutes
[10] = approximately 100 μL retrieved blood (female CD-1 mice retroorbitally bled), ex vivo; details: 37° C., up to 30 min
[11] = test system: extended-spectrum β-lactamase producing E. coli strain (designation 5770); experiment: Systemic infection model, cisplatin-pretreated CD-1 mice, blood bacterial counts; format: in vivo; details: 40 mg/kg ip
Procedure: As peptide drugs, such as antimicrobial peptides, are predominantly cleared through the kidneys (Klootwijk et al., 1997. J. Clin. Endocrinol. Metab. 82: 3068-3073) and the kidney functions of mice are 20-fold faster than those of humans, CD-1 female mice of 15-20 g were pretreated with 18 mg/kg cisplatin for 3 days to impair kidney clearance similar to the levels observed in humans (Mathe et al., 2006. Lab. Anim. 40: 296-300) before they were challenged intraperitoneally (ip) with 10^8 CFU per g mouse of an extended-spectrum β-lactamase producing E. coli strain (designation 5770). Four, 8 and 12 hours after challenge 10 or 20 mg/kg peptide Chex1-Arg20 or 40 mg/kg imipenem (as a positive control) were administered ip to 10 mice in each group. Imipenem is a broad spectrum β-lactam antibiotic. Prior to drug administration at all three timepoints, blood was taken from the tail vein of 3-5 mice for determining blood bacterial counts. […] Antimicrobials were administered ip 4 hours after challenge 3 times in 4 hour intervals. Blood was taken immediately before antimicrobial treatments. Numbers in parentheses indicate the number of mice with <10^3 CFU/mL. Bacterial counts were determined 10 times from different dilution of blood from 5 mice in each group in each timepoints.

[12] = test system: Escherichia coli 5770; experiment: Mouse survival after last dose, systemic infection model without cisplatin pretreatment; format: in vivo; details: 40 mg/kg
Procedure: The survival rate and the dynamics of survival of mice after the last dose of an antibacterial peptide treatment (12 hours post-infection) were measured in a mouse model of Escherichia coli 5770 systemic infection. In this particular study, the animals were not pretreated with cisplatin. Ten animals were used in each group. […] In the control (infected, non-treated) and the imipenem treated rows, the first numbers reflect the number of surviving animals on the day of assay measuring the efficacy of the Chex1-Arg20 and the second numbers are the surviving control animals on the day of the A3-APO efficacy assay.

RPYLPRPRPPRPVR-NH2 [Arg7-Arg20, Arg-Pro-Tyr-Leu-Pro-Arg-Pro-Arg-Pro-Pro-Arg-Pro-Val-Arg]
MIC against E. coli D31 [1]: >64 mg/L
MIC against E. coli HK179 [2]: >64 mg/L
MIC against E. coli SEQ102 [3]: >64 mg/L
MIC values against the test strain [4]: > 64 mg/L
MIC against K. pneumoniae HK123 [5]: >64 mg/L
MIC against S. typhimurium G10215 [6]: >64 mg/L

Chex-Arg-Pro-Asp-Lys-Pro-Arg-Pro-Tyr-Leu-Pro-Arg-Pro-Arg-Pro-Pro-Arg-Pro-Val-Arg
cleaved bond [7]: Val19-Arg20

CC[C@H](C)[C@H](NC(=O)[C@@H]1CCCN1C(=O)[C@H](CCCNC(=N)N)NC(=O)[C@@H]1CCCN1C(=O)[C@@H]1CCCN1C(=O)[C@@H](NC(=O)[C@@H]1CCCN1C(=O)[C@H](CCCNC(=N)N)NC(=O)[C@@H]1CCCN1C(=O)[C@H](CC(C)C)NC(=O)[C@H](Cc1ccc(O)cc1)NC(=O)[C@H](CO)NC(=O)CNC(=O)[C@H](CCCCN)NC(=O)[C@H](CC(=O)O)NC(=O)C1(N)CCCCC1)[C@@H](C)O)C(=O)N[C@@H](Cc1ccc(O)cc1)C(=O)N[C@@H](CC(N)=O)C(=O)N[C@@H](CCCNC(=N)N)C(=O)NC[C@H](NC(=O)[C@H](CCCNC(=N)N)NC(=O)[C@H](CC(N)=O)NC(=O)[C@H](Cc1ccc(O)cc1)NC(=O)[C@@H](NC(=O)[C@@H]1CCCN1C(=O)[C@H](CCCNC(=N)N)NC(=O)[C@@H]1CCCN1C(=O)[C@@H]1CCCN1C(=O)[C@@H](NC(=O)[C@@H]1CCCN1C(=O)[C@H](CCCNC(=N)N)NC(=O)[C@@H]1CCCN1C(=O)[C@H](CC(C)C)NC(=O)[C@H](Cc1ccc(O)cc1)NC(=O)[C@H](CO)NC(=O)CNC(=O)[C@H](CCCCN)NC(=O)[C@H](CC(=O)O)NC(=O)C1(N)CCCCC1)[C@@H](C)O)[C@@H](C)CC)C(=O)N[C@@H](CNC(C)=O)C(N)=O [Chex-pyrr-Dap dimer] (I: H-[Ac6c]DKGSYLPRPTPPRPIYNR[Dap][Dap](Ac)-NH2 / II: H-[Ac6c]DKGSYLPRPTPPRPIYNR; amide I:20-II:C; N-terminus assumed)
MIC against E. coli HK179 [2]: >64 mg/L
MIC against E. coli SEQ102 [3]: >64 mg/L
activity in full-strength Muller-Hinton broth ([4]; negative control): without significant activity
MIC against K. pneumoniae HK123 [5]: >64 mg/L
MIC against S. typhimurium G10215 [6]: >64 mg/L

Chex-Arg-Pro-Asp-Lys-Pro-Arg-Pro-Tyr-Leu-Pro-Arg-Pro-Arg--Pro-Pro-Arg-Pro-Val-Arg-NH2 ([Ac6c]RPDKPRPYLPRPRPPRPVR-NH2) [Chex1-Arg20-NH2]
reduction of blood bacterial counts [8]: reduced the bacterial counts to levels identical to those observed after imipenem treatment

(SEQ ID NO: 2)2-Dab (I: [Ac6c]RPDKPRPYLPRPRPPRPVR[Dab] / II: [Ac6c]RPDKPRPYLPRPRPPRPVR; amide I:21-II:C (inferred))
fragment found [9]: Chex1-Arg20; Chex-Arg-Pro-Asp-Lys-Pro-Arg-Pro-Tyr-Leu-Pro-Arg-Pro-Arg-Pro-Pro-Arg-Pro-Val-Arg (SEQ ID NO: 2), major, 5 minutes
fragment found [10]: Chex1-Val19; Chex-Arg-Pro-Asp-Lys-Pro-Arg-Pro-Tyr-Leu-Pro-Arg-Pro-Arg-Pro-Pro-Arg-Pro-Val (SEQ ID NO: 4), 30 min; also recorded: Chex1-Dab21; Chex-Arg-Pro-Asp-Lys-Pro-Arg-Pro-Tyr-Leu-Pro-Arg-Pro-Arg-Pro-Pro-Arg-Pro-Val-Arg-Dab (SEQ ID NO: 7), 30 min

C[C@@H](O)[C@H]1C(=O)N2C(C(=O)O)=C(SCCN=CN)C[C@H]12 [Imipenem, reference compound]
Bacterial counts in blood after inoculation/challenge ([11]; 4 h (blood taken before first dose)): 3.2 × 10^5 CFU/mL
Bacterial counts in blood after inoculation/challenge ([11]; 8 h): 3.7 × 10^3 CFU/mL
Bacterial counts in blood after inoculation/challenge ([11]; 12 h): < 1.2 × 10^3 CFU/mL
number of surviving mice (10 animals each) ([12]; 0 h after last dose, day of the A3-APO assay): 9
number of surviving mice (10 animals each) ([12]; 0 h after last dose, day of the Chex1-Arg20 assay): 10
number of surviving mice (10 animals each) ([12]; 3 h after last dose, day of the A3-APO assay): 9
number of surviving mice (10 animals each) ([12]; 3 h after last dose, day of the Chex1-Arg20 assay): 10
number of surviving mice (10 animals each) ([12]; 6 h after last dose, day of the A3-APO assay): 9
number of surviving mice (10 animals each) ([12]; 6 h after last dose, day of the Chex1-Arg20 assay): 10
number of surviving mice (10 animals each) ([12]; 9 h after last dose, day of the A3-APO assay): 9
number of surviving mice (10 animals each) ([12]; 9 h after last dose, day of the Chex1-Arg20 assay): 10
number of surviving mice (10 animals each) ([12]; 12 h after last dose, day of the A3-APO assay): 9
number of surviving mice (10 animals each) ([12]; 12 h after last dose, day of the Chex1-Arg20 assay): 10
